Experimental data: US12233161B1, “Lipids and lipid nanoparticle formulations” (LONGUIDE BIOPHARMA CORPORATION, priority 2024, dated 2025)

Experiments:
mice [1] = assay: In vivo delivery of FLuc-mRNA lipid nanoparticles in mice, in vivo imaging (IVIS)
Method in brief: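 Mice (n=3) received about 75 μL FLuc-mRNA LNP per mouse intramuscularly (rectus femoris), intravenously (tail vein), intraperitoneally or subcutaneously (back). After injection, D-luciferin (200 μL, 15 mg/mL) was given i.p. 10-15 min before IVIS imaging.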

[2] = Particle size and PDI of nucleic acid lipid nanoparticle preparations by dynamic light scattering; assay type: physicochemical
Method in brief: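 LNP solution (about 0.04 mg/mL mRNA before dilution) was diluted in ultrapure water and mixed by gentle pipetting. Particle size and PDI were then measured by dynamic light scattering.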

[3] = Potential characterization of nucleic acid lipid nanoparticle preparations; assay type: physicochemical
Method in brief: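 Zeta potential was read on a Malvern ZEN3700 after diluting 20 μL lipid nanoparticle solution (about 0.04 mg/mL mRNA) into 780 μL ultrapure water. Alternatively, a 27.5 μL sample in 200 μL water was first sized by dynamic light scattering, then diluted with 600 μL more water for potential measurement.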

mice [4] = assay: In vivo delivery of FLuc-circ-RNA lipid nanoparticles in mice; details: Fluc-circ-RNA LNP; for % of organ targeting: IV
Description: Lipid nanoparticles loaded with nucleic acid drugs were prepared according to step 2, replacing FLuc-mRNA with FLuc-circ-RNA (Hongene Biotech Corporation, Shanghai). After formulation, the nanoparticles were administered via intramuscular injection (into the quadriceps femoris muscle of mice), intravenous injection (into the tail vein of mice), intraperitoneal injection, or subcutaneous injection (subcutaneously on the back). Approximately 75 μL was injected per mouse, with a total of 3 mice per group. In vivo imaging (PerkinElmer, IVIS Lumina III) was performed after a certain period of time. Ten to fifteen minutes before imaging, 200 μL of a 15 mg/mL D-Luciferin working solution was injected intraperitoneally, followed by imaging analysis using the in vivo imaging system.

[5] = IV, body, DMG-PEG2000:DSPC:Chol:compound 1.00:10.00:33.00:56.00, N/P 42, Fluc-mRNA
[6] = IV, liver, DMG-PEG2000:DSPC:Chol:compound 1.00:10.00:33.00:56.00, N/P 42
[7] = IV, liver, DMG-PEG2000:DSPC:Chol:compound 1.00:10.00:33.00:56.00, N/P 42, Fluc-mRNA
[8] = IV, lung, DMG-PEG2000:DSPC:Chol:compound 1.00:10.00:33.00:56.00, N/P 42
[9] = IV, lung, DMG-PEG2000:DSPC:Chol:compound 1.00:10.00:33.00:56.00, N/P 42, Fluc-mRNA
[10] = IV, spleen, DMG-PEG2000:DSPC:Chol:compound 1.00:10.00:33.00:56.00, N/P 42
[11] = IV, spleen, DMG-PEG2000:DSPC:Chol:compound 1.00:10.00:33.00:56.00, N/P 42, Fluc-mRNA
[12] = DMG-PEG2000:DSPC:Chol:compound 1.00:10.00:33.00:56.00, N/P 42
[13] = DMG-PEG2000:DSPC:Chol:compound 1.40:11.15:38.95:48.50, N/P 30
[14] = DMG-PEG2000:DSPC:Chol:compound 2.50:11.50:56.00:30.00, N/P 42
[15] = Fluc-circ-RNA LNP, preparation given IV
[16] = Fluc-circ-RNA LNP, preparation given IM
[17] = N/P 30, formulation cells blank (line above: DMG-PEG2000:DSPC:Chol:compound 1.00:10.00:33.00:56.00)
[18] = DMG-PEG2000:DSPC:Chol:Lipid 1.40:11.15:38.95:48.50, N/P 30, IV, liver
[19] = DMG-PEG2000:DSPC:Chol:Lipid 1.40:11.15:38.95:48.50, N/P 30, IV, lung
[20] = DMG-PEG2000:DSPC:Chol:Lipid 1.40:11.15:38.95:48.50, N/P 30, IV, spleen
[21] = DMG-PEG2000:DSPC:Chol:Lipid 4.00:8.00:58.00:30.00, N/P 36, IV, liver
[22] = DMG-PEG2000:DSPC:Chol:Lipid 4.00:8.00:58.00:30.00, N/P 36, IV, lung
[23] = DMG-PEG2000:DSPC:Chol:Lipid 4.00:8.00:58.00:30.00, N/P 36, IV, spleen
[24] = DMG-PEG2000:DSPC:Chol:Lipid 1.40:11.15:38.95:48.50, N/P 30, mRNA LNP
[25] = DMG-PEG2000:DSPC:Chol:Lipid 4.00:8.00:58.00:30.00, N/P 36, mRNA LNP
[26] = DMG-PEG2000:DSPC:Chol:compound 1.00:10.00:33.00:56.00, N/P 48

CCCCCCCCCCOC(=O)C(O)CN(CCCN(C)CCCN(CC(O)C(=O)OCCCCCCCCCC)CC(O)C(=O)OCCCCCCCCCC)CC(O)C(=O)OCCCCCCCCCC (stereo not shown) [Compound L0313]
IVIS (mice [1]; IM, DMG-PEG2000:DSPC:Chol:compound 1.40:11.15:38.95:48.50, N/P 30, Fluc-mRNA): 7.43E+05 | IVIS (mice [1]; [5]): 5.88E+07 | IVIS (mice [1]; IV, body, DMG-PEG2000:DSPC:Chol:compound 2.50:11.50:56.00:30.00, N/P 42, Fluc-mRNA): 5.20E+07 | % of organ targeting (mice [1]; [6]): 2.04% | IVIS (mice [1]; [7]): 3.78E+06 | % of organ targeting (mice [1]; IV, liver, DMG-PEG2000:DSPC:Chol:compound 2.50:11.50:56.00:30.00, N/P 42): 6.90% | IVIS (mice [1]; IV, liver, DMG-PEG2000:DSPC:Chol:compound 2.50:11.50:56.00:30.00, N/P 42, Fluc-mRNA): 8.68E+06 | % of organ targeting (mice [1]; [8]): 62.84% | IVIS (mice [1]; [9]): 1.17E+08 | % of organ targeting (mice [1]; IV, lung, DMG-PEG2000:DSPC:Chol:compound 2.50:11.50:56.00:30.00, N/P 42): 1.10% | IVIS (mice [1]; IV, lung, DMG-PEG2000:DSPC:Chol:compound 2.50:11.50:56.00:30.00, N/P 42, Fluc-mRNA): 1.38E+06 | % of organ targeting (mice [1]; [10]): 35.12% | IVIS (mice [1]; [11]): 6.52E+07 | % of organ targeting (mice [1]; IV, spleen, DMG-PEG2000:DSPC:Chol:compound 2.50:11.50:56.00:30.00, N/P 42): 92.00% | IVIS (mice [1]; IV, spleen, DMG-PEG2000:DSPC:Chol:compound 2.50:11.50:56.00:30.00, N/P 42, Fluc-mRNA): 1.16E+08 | PDI [2, 12]: 0.17 | Particle size (nm) [2, 12]: 75.31 nm | PDI [2, 13]: 0.18 | Particle size (nm) [2, 13]: 111.20 nm | PDI [2, 14]: 0.17 | Particle size (nm) [2, 14]: 82.60 nm | PDI [2, 15]: 0.2 | Particle size (nm) [2, 15]: 115.97 nm | Zeta potential (mV) [3, 13]: 13.57 mV | Zeta potential (mV) [3, 15]: 9.98 mV | % of organ targeting (mice [4]; liver): 3.39% | % of organ targeting (mice [4]; lung): 20.55% | % of organ targeting (mice [4]; spleen): 76.06%

CCCCCCC(CCCCCC)C(=O)OCCCCCCOC(=O)C(O)CN(CCCN(C)CCCN(CC(O)C(=O)OCCCCCCOC(=O)C(CCCCCC)CCCCCC)CC(O)C(=O)OCCCCCCOC(=O)C(CCCCCC)CCCCCC)CC(O)C(=O)OCCCCCCOC(=O)C(CCCCCC)CCCCCC (stereo not shown) [Compound L0293]
IVIS (mice [1]; IM, N/P 30, formulation cells blank (line above: DMG-PEG2000:DSPC:Chol:compound 1.00:10.00:33.00:56.00), Fluc-mRNA): 3.61E+07 | IVIS (mice [1]; [5]): 3.11E+08 | % of organ targeting (mice [1]; [6]): 18.15% | IVIS (mice [1]; [7]): 5.63E+07 | % of organ targeting (mice [1]; [8]): 3.34% | IVIS (mice [1]; [9]): 1.03E+07 | % of organ targeting (mice [1]; [10]): 78.51% | IVIS (mice [1]; [11]): 2.43E+08 | PDI [2, 12]: 0.10 | Particle size (nm) [2, 12]: 108.93 nm | PDI [2, 16]: 0.15 | Particle size (nm) [2, 16]: 106.57 nm | PDI [2, 17]: 0.10 | Particle size (nm) [2, 17]: 89.30 nm | Zeta potential (mV) [3, 16]: 11.37 mV | Zeta potential (mV) [3, 17]: 9.98 mV | IVIS (mice [4]; IM, organ not given): 1.02E+08

CCCCCCCCCCCCNC(=O)C(O)CN(CCCN(CCO)CCCN(CC(O)C(=O)NCCCCCCCCCCCC)CC(O)C(=O)NCCCCCCCCCCCC)CC(O)C(=O)NCCCCCCCCCCCC (stereo not shown) [Compound L0281]
IVIS (mice [1]; DMG-PEG2000:DSPC:Chol:Lipid 1.40:11.15:38.95:48.50, N/P 30, IM, whole body scan): 1.38 × 10^6 | IVIS (mice [1]; DMG-PEG2000:DSPC:Chol:Lipid 1.40:11.15:38.95:48.50, N/P 30, IV, body (whole body scan)): 6.41 × 10^7 | % of organ targeting (mice [1]; [18]): 1.91% | IVIS (mice [1]; [18]): 3.17 × 10^6 | % of organ targeting (mice [1]; [19]): 93.34% | IVIS (mice [1]; [19]): 1.55 × 10^8 | % of organ targeting (mice [1]; [20]): 4.75% | IVIS (mice [1]; [20]): 7.89 × 10^6 | IVIS (mice [1]; DMG-PEG2000:DSPC:Chol:Lipid 4.00:8.00:58.00:30.00, N/P 36, IV, body): 7.07 × 10^7 | % of organ targeting (mice [1]; [21]): 21.21% | IVIS (mice [1]; [21]): 1.28 × 10^7 | % of organ targeting (mice [1]; [22]): 1.08% | IVIS (mice [1]; [22]): 6.52 × 10^5 | % of organ targeting (mice [1]; [23]): 77.71% | IVIS (mice [1]; [23]): 4.68 × 10^7 | IVIS (mice [1]; IV, body, DMG-PEG2000:DSPC:Chol:compound 1.00:10.00:33.00:56.00, N/P 48, Fluc-mRNA): 4.66E+08 | % of organ targeting (mice [1]; IV, liver, DMG-PEG2000:DSPC:Chol:compound 1.00:10.00:33.00:56.00, N/P 48): 0.73% | IVIS (mice [1]; IV, liver, DMG-PEG2000:DSPC:Chol:compound 1.00:10.00:33.00:56.00, N/P 48, Fluc-mRNA): 7.58E+06 | % of organ targeting (mice [1]; IV, lung, DMG-PEG2000:DSPC:Chol:compound 1.00:10.00:33.00:56.00, N/P 48): 97.70% | IVIS (mice [1]; IV, lung, DMG-PEG2000:DSPC:Chol:compound 1.00:10.00:33.00:56.00, N/P 48, Fluc-mRNA): 1.02E+09 | % of organ targeting (mice [1]; IV, spleen, DMG-PEG2000:DSPC:Chol:compound 1.00:10.00:33.00:56.00, N/P 48): 1.57% | IVIS (mice [1]; IV, spleen, DMG-PEG2000:DSPC:Chol:compound 1.00:10.00:33.00:56.00, N/P 48, Fluc-mRNA): 1.64E+07 | in vivo delivery efficiency as compared to the benchmark compound SM102 (mice [1]; certain formulations, Table 2): superior in vivo delivery efficiency | tissue-targeting specificity (lung vs spleen depending on molar percentage of compound) (mice [1]; certain formulations, Table 2): strong tissue-targeting specificity | PDI [2, 24]: 0.13 ± 0.01 | Particle size [2, 24]: 118.73 ± 0.90 nm | PDI [2, 25]: 0.11 ± 0.01 | Particle size [2, 25]: 104.43 ± 0.96 nm | PDI [2, 26]: 0.14 | Particle size (nm) [2, 26]: 138.90 nm | PDI [2, 15]: 0.19 | Particle size (nm) [2, 15]: 152.1 nm | Zeta potential (mV) [3, 26]: 14.67 mV | Zeta potential (mV) [3, 15]: 16.27 mV | % of organ targeting (mice [4]; liver): 0.74% | % of organ targeting (mice [4]; lung): 96.58% | % of organ targeting (mice [4]; spleen): 2.68%
